Reference: patent US12606591B2, “Process for the preparation of drospirenone as a fine powder through a double change of crystalline form” (INDUSTRIALE CHIMICA S.R.L., priority 2021, dated 2026)

Assay: Powder particle size by Helos laser particle size analyzer with Quixel disperser
Type: physicochemical
Description: The powders particle size was measured using a Helos laser particle size analyzer equipped with a Quixel disperser (instrument and disperser manufactured and sold by the company Sympatec GmbH of Clausthal-Zellerfeld, Germany), using ultrapure milli-Q water as the dispersing medium. The sample was first dispersed in milli-Q water by adding a few drops of Tween® 80 (polyethylene glycol sorbitan monooleate, sold by Merck) and placed in a sonicating bath for 5 min, then the suspension was added to the dispersing medium loaded into the instrument until an optical density value OD=4-15% is obtained. The measurement (30 s background +30 s measurement) was performed by operating under continuous sonication with the recirculation pump set at 20%.

size of all particles (Crystalline Form I powder of Example 3 (process of the invention), FIG. 9, cumulative curve): lower than 110 μm
size of the largest particles present (Crystalline Form I powder of Example 4 (comparative), FIG. 10): over 150 μm
peak of the sample particles size distribution (Crystalline Form I powder of Example 4 (comparative, no transformation to Form II), FIG. 10): about 70 μm
Compound: C[C@]12CCC(=O)C=C1[C@@H]1C[C@@H]1[C@H]1[C@@H]3[C@@H]4C[C@@H]4[C@@]4(CCC(=O)O4)[C@@]3(C)CC[C@@H]12 [Drospirenone, 17β-hydroxy-6β, 7β; 15, 16β-dimethylene-3-oxo-17α-pregn-4-ene-21-carboxylic acid γ-lactone]
